Literature values in paper PMC6311893, “Computational prediction of plasma protein binding of cyclic peptides from small molecule experimental data using sparse modeling techniques” (BMC Bioinformatics, 2018).
Where two headings read alike, the source gives them in different places.

Tested on: plasma protein
Details: cited from earlier work
[1] = fraction bound to plasma protein, small molecule dataset, sheet 1-SM, ref Ingle et al.
[2] = fraction bound to plasma protein, small molecule dataset, sheet 1-SM (Set Dte = test, Dtr = training), ref Ingle et al.
[3] = fraction bound to plasma protein, small molecule dataset, sheet 1-SM, Set Dtr, ref Ingle et al.

Row | Compound | PPB (fb) [1] | PPB (fb) [2] | further results
1 | CO[C@@H]1[C@@H](OC(N)=O)[C@@H](O)[C@H](Oc2ccc3c(O)c(NC(=O)c4ccc(O)c(CC=C(C)C)c4)c(=O)oc3c2C)OC1(C)C [Novobiocin] | 0.9 |  | 
2 | CCOC(=O)C1(c2ccccc2)CCN(C)CC1 [Meperidine] |  |  | PPB (fb) (plasma): 0.58
3 | O=c1[nH]c2ccccc2n1C1CCN(CCCC(c2ccc(F)cc2)c2ccc(F)cc2)CC1 [pimozide] |  | 0.95 | 
4 | CC(/C=C1\SC(=S)N(CC(=O)O)C1=O)=C\c1ccccc1 [Epalrestat] | 0.9 |  | 
5 | CCn1cc(C(=O)O)c(=O)c2cc(F)c(N3CCNCC3)cc21 [norfloxacin] | 0.15 |  | 
6 | Cc1cc(CC(=O)O)n(C)c1C(=O)c1ccc(Cl)cc1 [zomepirac] |  | 0.98 | 
7 | O=C1c2cccc3c2[C@H](CCC3)CN1[C@@H]1CN2CCC1CC2 [Palonosetron] |  |  | PPB (fb) [3]: 0.62
8 | Cefoperazone |  |  | PPB (fb) (plasma): 0.92
9 | CC(=O)[C@]1(O)Cc2c(O)c3c(c(O)c2[C@@H](O[C@H]2C[C@H](N)[C@H](O)[C@H](C)O2)C1)C(=O)c1ccccc1C3=O [Idarubicin] |  | 0.95 | 
10 | Cc1cccc(Nc2ccccc2C(=O)O)c1C [mefenamic acid] | 0.99 |  | 
11 | CC[C@@H](CO)NC(=O)[C@@H]1C=C2c3cccc4c3c(cn4C)C[C@H]2N(C)C1 [methysergide] |  |  | PPB (fb) (plasma): 0.66
12 | CC(C)[C@H]1CC[C@H](C(=O)N[C@H](Cc2ccccc2)C(=O)O)CC1 [Nateglinide] |  |  | PPB (fb) [3]: 0.98
13 | O=C(NC1CCN(CCc2c[nH]c3ccccc23)CC1)c1ccccc1 [Indoramin] |  |  | PPB (fb) [3]: 0.83
14 | CC(Oc1ccc(Cl)c(Cl)c1)C(=O)NC1C(=O)N2C1SC(C)(C)C2C(=O)O (centres unmarked) [penicillin58] | 0.97 |  | 
15 | COc1cc2nc(N3CCN(C(=O)C4CCCO4)CC3)nc(N)c2cc1OC (centres unmarked) [Terazosin] | 0.91 |  | 
16 | Nc1ccc(S(=O)(=O)Nc2ncccn2)cc1 [Sulfadiazine] | 0.45 |  | 
17 | CN(C)C/C=C(/c1ccc(Br)cc1)c1cccnc1 [zimeldine] |  | 0.9 | 
18 | OCCN1CCN(CCCN2c3ccccc3C=Cc3ccccc32)CC1 [opipramol] | 0.9 |  | 
19 | CSc1ccc2c(c1)N(CCC1CCCCN1C)c1ccccc1S2 (centres unmarked) [thioridazine] | 0.98 |  | 
20 | Nc1ccc(S(=O)(=O)Nc2ccnn2-c2ccccc2)cc1 [sulfaphenazole] |  | 0.95 | 
21 | CCC1(c2ccc(N)cc2)CCC(=O)NC1=O (centres unmarked) [aminoglutethimide] |  | 0.24 | 

Row | Compound | PPB (fb) [1] | PPB (fb) [2] | further results
22 | CC(=O)Nc1ccc(OCC(O)CNC(C)C)cc1 (centres unmarked) [practolol] | 0.3 |  | 
23 | Nc1c(Br)cc(Br)cc1CN[C@H]1CC[C@H](O)CC1 [ambroxol] |  | 0.9 | 
24 | CCN(CC)CCCC(C)Nc1ccnc2cc(Cl)ccc12 (centres unmarked) [Chloroquine] |  |  | PPB (fb) [3]: 0.58
25 | NS(=O)(=O)c1cc(C(=O)O)cc(N2CCCC2)c1Oc1ccccc1 [Piretanide] |  |  | PPB (fb) [3]: 0.94
26 | O=C(O)P(=O)(O)O [Foscarnet] |  |  | PPB (fb) [3]: 0.15
27 | CC(=O)Oc1ccccc1C(=O)O [Aspirin] |  |  | PPB (fb) [3]: 0.43
28 | COc1ccccc1-n1cc(C(=O)O)c(=O)c2cc(F)c(N3CCNCC3)cc21 [5a(o-OCH3)] |  | 0.29 | 
29 | CNC(C)Cc1ccc2c(c1)OCO2 (centres unmarked) [methylenedioxymethamphetamine] |  |  | PPB (fb) (plasma): 0.65
30 | CCC(Cc1c(I)cc(I)c(N)c1I)C(=O)O (centres unmarked) [iopanoic acid] | 0.79 |  | 
31 | CN1CCN(C(c2ccccc2)c2ccccc2)CC1 [cyclizine] |  | 0.6 | 
32 | CCC(=O)OCC(=O)[C@@]1(OC(=O)CC)[C@@H](C)C[C@H]2[C@@H]3CCC4=CC(=O)C=C[C@]4(C)[C@@]3(Cl)[C@@H](O)C[C@@]21C [Beclomethasone dipropionate] |  |  | PPB (fb) [3]: 0.87
33 | CCC(=O)O[C@@H](O[P@](=O)(CCCCc1ccccc1)CC(=O)N1C[C@H](C2CCCCC2)C[C@H]1C(=O)O)C(C)C [fosinopril] | 0.95 |  | 
34 | CN(C)CCC=C1c2ccccc2COc2ccccc21 [Doxepin] |  |  | PPB (fb) [3]: 0.81
35 | CC(Oc1ccccc1)C(=O)N[C@@H]1C(=O)N2[C@@H]1SC(C)(C)[C@@H]2C(=O)O (some centres unmarked) [Phenethicillin] |  |  | PPB (fb) [3]: 0.75
36 | CC1(C)SC2C(NC(=O)C(Cl)c3ccc(Cl)cc3)C(=O)N2C1C(=O)O (centres unmarked) [penicillin24] | 0.94 |  | 
37 | Nc1nc(N)c2nc(-c3ccccc3)c(N)nc2n1 [Triamterene] | 0.59 |  | 
38 | CN1CCC[C@H]1c1cccnc1 [Nicotine] |  |  | PPB (fb) (plasma): 0.05
39 | O=C(O)[C@H]1O[C@@H](Oc2cc3oc(-c4ccc(O)cc4)cc(=O)c3c(O)c2O)[C@H](O)[C@@H](O)[C@@H]1O [scutellarin] |  |  | PPB (fb): 0.82
40 | Nc1n[n+]([O-])c2ccccc2[n+]1[O-] [Tirapazamine] | 0.19 |  | 
41 | CCn1nc(C(=O)O)c(=O)c2cc3c(cc21)OCO3 [cinoxacin] |  | 0.64 | 
42 | Cc1ccccc1-n1c(C)nc2ccccc2c1=O [methaqualone] |  |  | PPB (fb) (plasma): 0.85

Row | Compound | PPB (fb) [1] | PPB (fb) [2] | further results
43 | CCN(CC)C(=O)Nc1ccc(OCC(O)CNC(C)(C)C)c(C(C)=O)c1 (centres unmarked) [celiprolol] |  | 0.25 | 
44 | CCC(OC)C(=O)NC1C(=O)N2C1SC(C)(C)C2C(=O)O (centres unmarked) [penicillin9] | 0.2 |  | 
45 | O=C1CN(/N=C/c2ccc(-c3ccc([N+](=O)[O-])cc3)o2)C(O)=N1 [dantrolene] |  | 0.89 | 
46 | CCN1CCC[C@H]1CNC(=O)c1c(OC)ccc(Br)c1OC [Remoxipride] | 0.79 |  | 
47 | CC1OC2(CS1)CN1CCC2CC1 (centres unmarked) [cevimeline] |  | 0.15 | 
48 | COc1ccc(Cl)cc1C(=O)NCCc1ccc(S(=O)(=O)NC(=O)NC2CCCCC2)cc1 [Glyburide] |  |  | PPB (fb) [3]: 0.98
49 | CCCOC(C(=O)OC1CCN(C)CC1)(c1ccccc1)c1ccccc1 [propiverine] | 0.9 |  | 
50 | COc1cc(N)c(Cl)cc1C(=O)NC1CCN(CCCOc2ccc(F)cc2)CC1OC (centres unmarked) [cisapride] |  | 0.98 | 
51 | N[C@@H](Cc1cc(I)c(Oc2ccc(O)c(I)c2)c(I)c1)C(=O)O [liothyronine] | 0.98 |  | 
52 | CC(=O)OCC(=O)[C@@]1(O)CC[C@H]2[C@@H]3CCC4=CC(=O)CC[C@]4(C)[C@H]3C(=O)C[C@@]21C [cortisone acetate] |  | 0.95 | 
53 | Cc1ccccc1N1C(=O)c2cc(S(N)(=O)=O)c(Cl)cc2NC1C (centres unmarked) [Metolazone] |  |  | PPB (fb) [3]: 0.95
54 | C[C@]12C=CC(=O)C=C1C(Cl)=C[C@@H]1[C@@H]2[C@@H](O)C[C@@]2(C)[C@H]1CC[C@]2(O)C(=O)CO [cloprednol] |  | 0.8 | 
55 | CC1(C)S[C@@H]2[C@H](NC(=O)[C@H](N)c3ccc(O)cc3)C(=O)N2[C@H]1C(=O)O [Amoxicillin] |  |  | PPB (fb) [3]: 0.17
56 | Cc1cn([C@H]2C[C@H](N=[N+]=[N-])[C@@H](CO)O2)c(=O)[nH]c1=O [Zidovudine] |  | 0.28 | 
57 | CN1CCCC(n2nc(Cc3ccc(Cl)cc3)c3ccccc3c2=O)CC1 (centres unmarked) [Azelastine] |  |  | PPB (fb) [3]: 0.85
58 | COc1cccc(OC)c1CC(=O)NC1C(=O)N2C1SC(C)(C)C2C(=O)O (centres unmarked) [penicillin18] |  | 0.77 | 
59 | CCCc1c2oc(C(=O)O)cc(=O)c2cc2c(=O)cc(C(=O)O)n(CC)c12 [nedocromil] | 0.8 |  | 
60 | CN1C(=O)CCS(=O)(=O)C1c1ccc(Cl)cc1 (centres unmarked) [chlormezanone] |  |  | PPB (fb) (plasma): 0.5
61 | C[C@H](N[C@@H](CCc1ccccc1)C(=O)O)C(=O)N1Cc2ccccc2C[C@H]1C(=O)O [Quinaprilat] |  | 0.68 | 
62 | CCOc1nc2cccc(C(=O)OC(C)OC(=O)OC3CCCCC3)c2n1Cc1ccc(-c2ccccc2-c2nnn[nH]2)cc1 (centres unmarked) [Candesartan cilexetil] |  | 0.99 | 
